Where “and” joins values, the source holds several entries; their conditions need not be identical. Identical values can stand only once. Counter-ions that a name gives are not always drawn. Like-named read-outs stand apart in the source and are kept apart here.
Columns and labels:
[1] = test system: resistant embryos; experiment: ABA application and embryo partial desiccation on embryo germination frequency; assay type: cell-based, canola
Description: To further increase embryo germination frequency, abscisic acid (ABA) at 25 μM was added in microspore culture medium NLN-10S with 0.1 -0.2 mM glyphosate 14 days after bombardment. The resistant embryos were partially desiccated in a Petri dish for one week at 25° C. The Petri dish contained a piece of Bounty paper towel with water for maintaining moisture.

[2] = test system: microspores
Description: • DNA constructs with promoter AT-UBIQ10 and glyphosate resistant gene GAT4621 were used in the following experiments. • 1. […] In developing canola transformation procedure, microspores were cultured for two days or three days in IM-17M and then cultured in NLN-10S for one day or not before bombardment.
• 2. Effect of CaC12 in IM-17M before bombardment and NLN-13S with 5 μM trifluralin on transformation efficiency • 15 mM calcium chloride was supplemented in IM-17M in microspore culture before bombardment.
It was further studied that calcium chloride was supplemented in NLN-13S with 5 μM trifluralin after bombardment on transformation efficiency.

[3] = test system: embryos; experiment: PCIB in embryo germination medium on germination frequency; assay type: cell-based, canola
Description: • 4. Increase embryo germination frequency • One of technical challenges in canola transformation was that embryo germination frequency was only around 20%. Antiauxin 2-(p-Chlorophenoxy)-2-methylpropionic acid (PCIB) was included in embryo germination medium BGM for inhibiting callusing. Embryo germination frequency was doubled when 0.0625-1 mg/l PCIB was added in BGM with 0.1 mM glyphosate

[4] = test system: microspore-derived hypocotyls; experiment: Sucrose in osmotic medium: transient GUS expression; assay type: cell-based, Brassica; settings: for # with GUS: 24 hypocotyls
Description: Experiments 3 to 7 describe work done using microspore-derived hypocotyls. Microspores were isolated as is known to those skilled in the art and cultured in NLN medium for 21 to 28 days (Swanson et al., 1987). Hypocotyls were excised from the embryos produced from the microspores when the embryos were approximately 3-5 mm in size. Microspores of cultivar 46A65 were cultured in NLN medium for approximately 21 days. On the 21st day, the NLN medium was changed and diluted (1:20) with fresh NLN medium and the embryos were cultured for 5 more days. The hypocotyls were excised from the embryos and preconditioned overnight on MMW+BAP (4 mg/l)+NAA (0.25 mg/l). The hypocotyls were transferred to osmotic medium (for example, 17% sucrose+1% agar+1 g/l MES, pH 6.0) for 4 hours and then bombarded. The DNA construct used in bombardments was PHP 18644. After bombardment, the hypocotyls were cultured on the osmotic medium for approximately between 4 and 20 hours (for example, overnight). The bombarded hypocotyls were then cultured on MMW+BAP (4 mg/l)+kanamycin (25-50 mg/l) for bud induction. Regenerated buds were cultured on MMW+kanamycin (50-100 mg/l) or MMW+BAP (0.2 mg/l)+kanamycin (50-100 mg/l) for plant regeneration. The following experiments were done to test the effect of sucrose concentration, amount of gold particle used and the effect of rupture disk on transformation frequency.
The objective was to find the appropriate concentration of sucrose in the osmotic medium (sucrose+1% agar+1 g/l MES, pH 6.0) in order to produce the highest transformation efficiency.
GUS analysis is known to those skilled in the art. The protocol can be found in numerous references, for example Wu H, McCormac A C, Elliott M C, Chen D F (1998) Agrobacterium-mediated s table transformation of cell suspension cultures of barley (Hordeum vulgare). Plant Cell Tissue and Organ Culture 54:161-171.

[5] = test system: pre-incubated microspores; experiment: Sucrose in osmotic medium: resistant embryo production; assay type: cell-based, Brassica; settings: Total of 4 reps
Description: The purpose of this experiment was to find the optimal concentration of sucrose in the osmotic medium. Microspores were cultured for 4-7 days using 17S/10S protocol. […] The rupture disk was 900 psi. […] The diluted cultures were incubated in the light for 2-3 weeks.

[6] = test system: non-transgenic microspores; experiment: G418 selection kill curve: embryo growth and survival in liquid medium; assay type: cell-based, Brassica; settings: for # Green embryos or with green island: liquid medium
Text: (§1) The objective was to determine the concentration of G418 that kills non-transgenic microspores. Prior to this experiment, selection was done on solid medium, not in liquid medium. Using liquid selection for Brassica transgenic cells is novel. Selection in liquid medium is advantageous for at least the following reasons: (a) it allows selection at an early stage, thereby eliminating the need for subsequent transfers of explants, (b) it allows for a cleaner selection because the explants are generally smaller when they are in liquid medium and the liquid allows all the surfaces of the explant to be exposed to the selection agent, (c) it may reduce the frequency of chimeras, and (d) a lower amount of the selection agent is needed therefore reducing the toxicity to the researcher and the environment. The effect of various concentrations of kanamycin on embryo growth in liquid medium was tested. […] Accordingly, it was difficult to discriminate transgenic tissue or embryos from non-transgenic.

[7] = test system: pre-incubated microspores; experiment: Glyphosate resistant embryo selection after bombarding pre-incubated microspores; assay type: cell-based, Brassica
Description: Experiments 8 to 17 describe the work done using pre-incubated microspores. The microspores were cultured in NLN-17S/10S for 2-10 days. Optimally, the microspores are cultured for 5-7 days. Embryos could not be detected with the naked eye. The embryogenic microspores were collected so that they remain viable and embryogenic with a Nitex™ sieve (15-36 um in pore size) or Percoll® (35-45%) gradient centrifugation. Pre-incubated microspores were used as bombarded materials. Any Brassica line that is capable of regenerating by microspore culture can be used. The microspores were cultured for 1-3 days in NLN-17S at 31.5° C., and then in NLN-10S for 4-5 days at 25° C. The constructs used in the bombardments were PHP18644, PHP21965, PHP22024, PHP22021, and PHP23560 (see Table 9). The constructs can be the full plasmid or the expression cassette only. For example, PHP22024 can be either the expression cassette or the full plasmid. The pre-incubated microspores were filtrated with sieves of pore size of 15 μm to 36 μm. The collected microspores were used for bombardment. The microspores were loaded on a sieve 15 μm or 20 μm on two layers of filter-paper and dried for less than one minute. […] Resistant embryos were recorded after two to three weeks of culture. […]

[8] = test system: non-bombarded and bombarded embryos; experiment: Effect of kanamycin on embryo growth in liquid medium; assay type: cell-based, Brassica
Text: as §1

[9] = ABA 25 μM plus partial desiccation
[10] = 15 mM CaCl2 in IM-17M before bombardment, 24 shots

## CC1=CC(=O)CC(C)(C)[C@@]1(O)/C=C/C(C)=C\C(=O)O [ABA, abscisic acid]
[1]; ABA 25 μM in NLN-10S 14 days after bombardment plus partial desiccation one week, 479 embryos
  Total shoots: 338
[1]; [9]
  Germination: 76.6%
  embryo germination frequency, change: significantly increased

## [Ca+2].[Cl-].[Cl-] [CaCl2, calcium chloride]
[2]; [10]
  # embryos: 574
  Embryos/shot: 23.9
[2]; CaCl2 0 mM in IM-17M, 10 mM in NLN-13S + trifluralin
  Embryos/shot: 11
[2]; CaCl2 0 mM in IM-17M, 10 mM in NLN-13S + trifluralin, 15 shots
  # embryos: 169
[2]; CaCl2 0 mM in IM-17M, 20 mM in NLN-13S + trifluralin
  Embryos/shot: 16
[2]; CaCl2 0 mM in IM-17M, 20 mM in NLN-13S + trifluralin, 19 shots
  # embryos: 300
[2]; CaCl2 15 mM in IM-17M, 0 mM in NLN-13S + trifluralin
  Embryos/shot: 6
[2]; CaCl2 15 mM in IM-17M, 0 mM in NLN-13S + trifluralin, 22 shots
  # embryos: 139

## CC(C)(Oc1ccc(Cl)cc1)C(=O)O [PCIB, 2-(p-Chlorophenoxy)-2-methylpropionic acid]
[3]; 0.0625-1 mg/l PCIB in BGM with 0.1 mM glyphosate
  embryo germination frequency, change: doubled
[3]; PCIB 0.0625 mg/l
  Germination frequency: 44%
[3]; PCIB 0.0625 mg/l in BGM with 0.1 mM glyphosate, 63 embryos
  # plantlets: 28
[3]; PCIB 0.125 mg/l
  Germination frequency: 43%
[3]; PCIB 0.125 mg/l, 72 embryos
  # plantlets: 31
[3]; PCIB 0.25 mg/l
  Germination frequency: 50%
[3]; PCIB 0.25 mg/l, 72 embryos
  # plantlets: 36
[3]; PCIB 0.5 mg/l
  Germination frequency: 44%
[3]; PCIB 0.5 mg/l, 63 embryos
  # plantlets: 28
[3]; PCIB 1 mg/l
  Germination frequency: 44%
[3]; PCIB 1 mg/l, 81 embryos
  # plantlets: 36

## OC[C@H]1O[C@@](CO)(O[C@H]2O[C@H](CO)[C@@H](O)[C@H](O)[C@H]2O)[C@@H](O)[C@@H]1O [Sucrose, sucrose]
[4]; 15% sucrose
  # spots/hypocotyls: 9.8
  # total spots: 236
  # with GUS: 23
[4]; 17% sucrose
  # spots/hypocotyls: 10.1
  # total spots: 242
  # with GUS: 23
[4]; 19% sucrose
  # spots/hypocotyls: 19.8
  # total spots: 475
  # with GUS: 23
[4]; 21% sucrose
  # spots/hypocotyls: 16.7
  # total spots: 400
  # with GUS: 24
[5]; 17% sucrose
  Resistant embryos/plate: 2.5
[5]; 19% sucrose
  Resistant embryos/plate: 2.1

## CN[C@@H]1[C@@H](O)[C@@H](O[C@@H]2[C@@H](O)[C@H](O[C@H]3O[C@H]([C@@H](C)O)[C@@H](O)[C@H](O)[C@H]3N)[C@@H](N)C[C@H]2N)OC[C@]1(C)O [Variant G418, G418 disulfate salt]
[6]; G418 1.25 mg/l, disulfate salt
  # Green embryos or with green island: 30 and 28
[6]; G418 2.5 mg/l, disulfate salt
  # Green embryos or with green island: 14 and 11
[6]; G418 5 mg/l
  # Green embryos or with green island: 0
[6]; G418 10 mg/l
  # Green embryos or with green island: 0
[6]; NLN with 6.5% sucrose medium
  concentration sufficient to differentiate transformed cells from untransformed cells: 5 to 10 mg/L

## O=C(O)CNCP(=O)(O)O [glyphosate]
[7]; glyphosate 0.1 mM or 0.2 mM
  identification of resistant embryos: allowed identification of resistant embryos
[7]; glyphosate 0.2 mM versus 0.1 mM
  selection efficiency: fewer false positive results

## NC[C@H]1O[C@H](O[C@H]2[C@H](O)[C@@H](O[C@H]3O[C@H](CO)[C@@H](O)[C@H](N)[C@H]3O)[C@H](N)C[C@@H]2N)[C@H](O)[C@@H](O)[C@@H]1O [kanamycin]
[8]
  concentration sufficient to bleach non-bombarded embryos and inhibit non-bombarded embryo growth: 10 mg/L

Reference: patent publication US20210207153A1, “SYSTEMS AND METHODS FOR EDITING A PLANT GENOME” (PIONEER HI-BRED INTERNATIONAL, INC., priority 2018, published 2021)
